Legend:
Carbonic anhydrase 7 = Carbonic anhydrase 7 (Homo sapiens, UniProt P43166); experiment: Inhibition of human CA7 preincubated for 15 mins by stopped-flow CO2 hydration method
Carbonic anhydrase 2 = Carbonic anhydrase 2 (Homo sapiens, UniProt P00918); experiment: Inhibition of human CA2 cytosolic isoform preincubated for 15 mins by stopped-flow CO2 hydration method
Carbonic anhydrase 12 = Carbonic anhydrase 12 (Homo sapiens, UniProt O43570)
Carbonic anhydrase 9 = Carbonic anhydrase 9 (Homo sapiens, UniProt Q16790)
Carbonic anhydrase 3 = Carbonic anhydrase 3 (Homo sapiens, UniProt P07451)
Carbonic anhydrase 3, sequence (P07451 whole entry): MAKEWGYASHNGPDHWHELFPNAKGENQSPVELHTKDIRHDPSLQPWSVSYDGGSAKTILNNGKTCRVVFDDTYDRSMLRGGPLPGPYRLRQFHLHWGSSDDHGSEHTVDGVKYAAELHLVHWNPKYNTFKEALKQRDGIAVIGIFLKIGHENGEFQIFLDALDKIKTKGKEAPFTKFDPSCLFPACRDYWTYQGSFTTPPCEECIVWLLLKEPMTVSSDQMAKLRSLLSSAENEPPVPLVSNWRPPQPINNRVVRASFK

Carbonic anhydrase 1 = Carbonic anhydrase 1 (Homo sapiens, UniProt P00915)
Carbonic anhydrase 1, sequence (P00915 whole entry): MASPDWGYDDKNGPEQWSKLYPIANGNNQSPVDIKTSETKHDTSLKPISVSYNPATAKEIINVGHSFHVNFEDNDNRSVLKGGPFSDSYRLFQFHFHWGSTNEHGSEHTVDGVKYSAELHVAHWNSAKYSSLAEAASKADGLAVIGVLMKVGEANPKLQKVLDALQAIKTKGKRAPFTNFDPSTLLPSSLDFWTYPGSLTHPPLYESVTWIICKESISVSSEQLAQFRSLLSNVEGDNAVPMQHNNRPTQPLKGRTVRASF

Carbonic anhydrase 13 = Carbonic anhydrase 13 (Homo sapiens, UniProt Q8N1Q1)
Carbonic anhydrase 13, sequence (Q8N1Q1 whole entry): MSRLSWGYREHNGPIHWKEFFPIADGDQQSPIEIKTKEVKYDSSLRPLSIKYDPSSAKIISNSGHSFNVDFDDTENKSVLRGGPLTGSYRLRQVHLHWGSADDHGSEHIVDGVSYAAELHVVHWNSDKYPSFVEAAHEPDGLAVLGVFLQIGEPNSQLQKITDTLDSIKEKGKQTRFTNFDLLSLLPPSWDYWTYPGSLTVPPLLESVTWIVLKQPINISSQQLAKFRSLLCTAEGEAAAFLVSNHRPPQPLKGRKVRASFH

Carbonic anhydrase 7, sequence (P43166 whole entry, canonical isoform): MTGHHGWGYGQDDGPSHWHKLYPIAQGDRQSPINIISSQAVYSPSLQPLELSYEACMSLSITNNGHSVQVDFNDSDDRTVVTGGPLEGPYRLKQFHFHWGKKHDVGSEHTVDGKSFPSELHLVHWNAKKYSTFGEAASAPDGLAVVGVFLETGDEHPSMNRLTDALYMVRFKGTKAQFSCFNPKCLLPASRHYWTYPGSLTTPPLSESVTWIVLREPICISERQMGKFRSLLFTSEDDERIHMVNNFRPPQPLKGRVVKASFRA
Carbonic anhydrase 12, sequence (O43570 whole entry): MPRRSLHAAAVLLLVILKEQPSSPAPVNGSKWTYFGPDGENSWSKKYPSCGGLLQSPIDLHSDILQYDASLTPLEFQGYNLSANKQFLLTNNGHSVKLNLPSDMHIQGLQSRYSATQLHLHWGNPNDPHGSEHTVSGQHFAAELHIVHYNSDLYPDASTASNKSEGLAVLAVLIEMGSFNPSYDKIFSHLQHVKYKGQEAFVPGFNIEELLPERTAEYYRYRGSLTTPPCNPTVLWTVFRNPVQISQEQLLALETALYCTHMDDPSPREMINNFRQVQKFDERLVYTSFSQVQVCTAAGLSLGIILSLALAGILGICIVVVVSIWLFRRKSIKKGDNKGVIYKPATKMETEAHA

SMILES | Ki (Carbonic anhydrase 7) [nM] | Ki (Carbonic anhydrase 2) [nM] | Ki (Carbonic anhydrase 12) [nM] | Ki (Carbonic anhydrase 9) [nM] | Ki (Carbonic anhydrase 3) [µM] | Ki (Carbonic anhydrase 1) [µM] | Ki (Carbonic anhydrase 13) [nM]
Nc1ccc(S(N)(=O)=O)nc1 | 135 | 253 | 114 | 279 | > 100 | 24.7 | 
Cc1ccc(S(=O)(=O)NC(=O)Nc2ccc(S(N)(=O)=O)nc2)cc1 | 30 |  |  |  | > 100 |  | 
Cc1ccc(S(=O)(=O)NC(=O)Nc2ccc(S(N)(=O)=O)cc2)cc1 | 6.4 |  |  |  | > 100 |  | 
Nc1ccc(S(N)(=O)=O)cc1 [SULFANILAMIDE] |  |  |  |  | > 100 |  | 35

Source: ChEMBL document CHEMBL3098114, “Combining the tail and the ring approaches for obtaining potent and isoform-selective carbonic anhydrase inhibitors: solution and X-ray crystallographic studies” (Bioorg Med Chem, 2014)
